Results taken from ChEMBL document CHEMBL4715829, “Heterodimeric Rifampicin-Tobramycin conjugates break intrinsic resistance of Pseudomonas aeruginosa to doxycycline and chloramphenicol in vitro and in a Galleria mellonella in vivo model” (Eur J Med Chem, 2019).
Converted amounts (≈) assume the structure as drawn.

What was measured:
Escherichia coli [1] = assay: Antibacterial activity against Escherichia coli ATCC 25922 assessed as potentiation of chloramphenicol-induced antibacterial activity by measuring chloramphenicol MIC at 10 uM incubated for 18 hrs in presence of chloramphenicol by broth microdilution assay (reference value: 2 ug/ml); type: functional
Pseudomonas aeruginosa [2] = assay: Antibacterial activity against Pseudomonas aeruginosa 750 harboring efflux mutant assessed as reduction in bacterial growth incubated for 18 hrs by broth microdilution assay; type: functional
Pseudomonas aeruginosa [3] = assay: Antibacterial activity against Pseudomonas aeruginosa 262-101856 assessed as fractional inhibitory concentration index in presence of chloramphenicol incubated for 18 hrs by broth microdilution assay; type: functional
Pseudomonas aeruginosa [4] = assay: Antibacterial activity against Pseudomonas aeruginosa 101243 assessed as reduction in bacterial growth incubated for 18 hrs by broth microdilution assay; type: functional
Enterobacter cloacae [5] = assay: Antibacterial activity against Enterobacter cloacae ATCC 117029 assessed as fractional inhibitory concentration index in presence of doxycycline incubated for 18 hrs by broth microdilution assay; type: functional
Pseudomonas aeruginosa [6] = assay: Antibacterial activity against Pseudomonas aeruginosa PAO1 assessed as reduction in bacterial growth by measuring clindamycin MIC at <=10 uM in presence of clindamycin incubated for 18 hrs by broth microdilution assay based checkerboard assay (reference value: 1024 microg/ml); type: functional; conditions: dose microM <=10
Enterobacter cloacae [7] = assay: Antibacterial activity against Enterobacter cloacae ATCC 117029 assessed as potentiation of doxycycline-induced antibacterial activity by measuring doxycycline MIC at 10 uM incubated for 18 hrs in presence of doxycycline by broth microdilution assay (reference value: 64 ug/ml); type: functional
Pseudomonas aeruginosa [8] = assay: Antibacterial activity against Pseudomonas aeruginosa PAO1 assessed as reduction in bacterial growth by measuring chloramphenicol MIC at <=[…] uM in presence of chloramphenicol incubated for 18 hrs by broth microdilution assay based checkerboard assay (reference value: […] microg/ml); type: functional; conditions: dose microM <=10
Pseudomonas aeruginosa [9] = assay: Antibacterial activity against Pseudomonas aeruginosa 101885 assessed as fractional inhibitory concentration index in presence of chloramphenicol incubated for 18 hrs by broth microdilution assay; type: functional
Pseudomonas aeruginosa [10] = assay: Potentiation of doxycycline-induced antibacterial activity against Pseudomonas aeruginosa 260-97103 incubated for 18 hrs in presence of doxycycline by broth microdilution assay; type: functional, organism-based; conditions: dose 1-32 µg/ml
Escherichia coli [11] = assay: Antibacterial activity against Escherichia coli ATCC 25922 assessed as fractional inhibitory concentration index in presence of doxycycline incubated for 18 hrs by broth microdilution assay; type: functional
Enterobacter cloacae [12] = assay: Antibacterial activity against Enterobacter cloacae ATCC 117029 assessed as reduction in bacterial growth incubated for 18 hrs by broth microdilution assay; type: functional
Pseudomonas aeruginosa [13] = assay: Antibacterial activity against Pseudomonas aeruginosa PAO1 assessed as reduction in bacterial growth by measuring ceftazidime MIC at <=10 uM in presence of ceftazidime incubated for 18 hrs by broth microdilution assay based checkerboard assay (reference value: 2 microg/ml); type: functional; conditions: dose microM <=10
[14] = system: Staphylococcus epidermidis; assay: Antibacterial activity against methicillin-resistance Staphylococcus epidermidis CAN-ICU 61589 (CAZ>32) assessed as reduction in bacterial growth incubated for 18 hrs by broth microdilution assay; type: functional
Enterobacter cloacae [15] = assay: Antibacterial activity against Enterobacter cloacae ATCC 117029 assessed as potentiation of chloramphenicol-induced antibacterial activity by measuring chloramphenicol MIC at 10 uM incubated for 18 hrs in presence of chloramphenicol by broth microdilution assay (reference value: 8 ug/ml); type: functional
Pseudomonas aeruginosa [16] = assay: Antibacterial activity against Pseudomonas aeruginosa 260-97103 assessed as reduction in bacterial growth incubated for 18 hrs by broth microdilution assay; type: functional
Pseudomonas aeruginosa [17] = assay: Antibacterial activity against Pseudomonas aeruginosa 101885 assessed as fractional inhibitory concentration index in presence of doxycycline incubated for 18 hrs by broth microdilution assay; type: functional
Pseudomonas aeruginosa [18] = assay: Antibacterial activity against Pseudomonas aeruginosa 259-96918 assessed as fractional inhibitory concentration index in presence of chloramphenicol incubated for 18 hrs by broth microdilution assay; type: functional
Pseudomonas aeruginosa [19] = assay: Antibacterial activity against Pseudomonas aeruginosa 260-97103 assessed as fractional inhibitory concentration index in presence of doxycycline incubated for 18 hrs by broth microdilution assay; type: functional
Pseudomonas aeruginosa [20] = assay: Antibacterial activity against Pseudomonas aeruginosa PAO1 assessed as fractional inhibitory concentration index in presence of Linezolid incubated for 18 hrs by broth microdilution assay based checkerboard assay; type: functional
Klebsiella pneumoniae [21] = assay: Antibacterial activity against Klebsiella pneumoniae ATCC 16381 assessed as fractional inhibitory concentration index in presence of doxycycline incubated for 18 hrs by broth microdilution assay; type: functional
Pseudomonas aeruginosa [22] = assay: Potentiation of doxycycline-induced antibacterial activity against Pseudomonas aeruginosa 264-101354 incubated for 18 hrs in presence of doxycycline by broth microdilution assay; type: functional, organism-based; conditions: dose 1-32 µg/ml
Pseudomonas aeruginosa [23] = assay: Antibacterial activity against Pseudomonas aeruginosa 114228 assessed as fractional inhibitory concentration index in presence of chloramphenicol incubated for 18 hrs by broth microdilution assay; type: functional
Klebsiella pneumoniae [24] = assay: Antibacterial activity against Klebsiella pneumoniae ATCC 13883 assessed as reduction in bacterial growth incubated for 18 hrs by broth microdilution assay; type: functional
Pseudomonas aeruginosa [25] = assay: Antibacterial activity against Pseudomonas aeruginosa PAO1 assessed as reduction in bacterial growth by measuring tobramycin MIC at <=10 uM in presence of tobramycin incubated for 18 hrs by broth microdilution assay based checkerboard assay (reference value: 1 microg/ml); type: functional; conditions: dose microM <=10
Klebsiella pneumoniae [26] = assay: Antibacterial activity against Klebsiella pneumoniae ATCC 16381 assessed as potentiation of doxycycline-induced antibacterial activity by measuring doxycycline MIC at 10 uM incubated for 18 hrs in presence of doxycycline by broth microdilution assay (reference value: 128 ug/ml); type: functional
Pseudomonas aeruginosa [27] = assay: Potentiation of doxycycline-induced antibacterial activity against Pseudomonas aeruginosa PAO1 incubated for 18 hrs in presence of doxycycline by broth microdilution assay; type: functional, organism-based; conditions: dose 1-32 µg/ml
[28] = system: Stenotrophomonas maltophilia; assay: Antibacterial activity against Stenotrophomonas maltophilia CAN-ICU 62584 assessed as reduction in bacterial growth incubated for 18 hrs by broth microdilution assay; type: functional
Pseudomonas aeruginosa [29] = assay: Antibacterial activity against Pseudomonas aeruginosa 101243 assessed as fractional inhibitory concentration index in presence of doxycycline incubated for 18 hrs by broth microdilution assay; type: functional
Pseudomonas aeruginosa [30] = assay: Potentiation of chloramphenicol-induced antibacterial activity against Pseudomonas aeruginosa PAO1 incubated for 18 hrs in presence of chloramphenicol by broth microdilution assay; type: functional, organism-based; conditions: dose 1-32 µg/ml
Pseudomonas aeruginosa [31] = assay: Antibacterial activity against Pseudomonas aeruginosa PAO1 assessed as reduction in bacterial growth by measuring moxifloxacin MIC at <=10 uM in presence of moxifloxacin incubated for 18 hrs by broth microdilution assay based checkerboard assay (reference value: 1 microg/ml); type: functional; conditions: dose microM <=10
Pseudomonas aeruginosa [32] = assay: Antibacterial activity against Pseudomonas aeruginosa 264-101354 assessed as reduction in bacterial growth incubated for 18 hrs by broth microdilution assay; type: functional
Acinetobacter baumannii = assay: Antibacterial activity against Acinetobacter baumannii ATCC 17978 assessed as reduction in bacterial growth incubated for 18 hrs by broth microdilution assay; type: functional
Pseudomonas aeruginosa [33] = assay: Antibacterial activity against Pseudomonas aeruginosa 262-101856 assessed as fractional inhibitory concentration incubated for 18 hrs in presence of doxycycline by broth microdilution assay; type: functional
Pseudomonas aeruginosa [34] = assay: Antibacterial activity against Pseudomonas aeruginosa 264-101354 assessed as fractional inhibitory concentration incubated for 18 hrs in presence of doxycycline by broth microdilution assay; type: functional

With `CO[C@H]1/C=C/O[C@@]2(C)Oc3c(C)c(O)c4c(O)c(c(/C=N/N5CCN(Cc6cn(CCCCCCO[C@@H]7[C@@H](O[C@H]8O[C@H](CO)[C@@H](O)[C@H](N)[C@H]8O)[C@H](N)C[C@H](N)[C@H]7O[C@H]7O[C@H](CN)[C@@H](O)C[C@H]7N)nn6)CC5)c(O)c4c3C2=O)NC(=O)/C(C)=C\C=C\[C@H](C)[C@H](O)[C@@H](C)[C@@H](O)[C@@H](C)[C@H](OC(C)=O)[C@@H]1C.Cl.Cl.Cl.Cl.Cl` the MIC (Escherichia coli [1]) was 1 µg/mL, the MIC (Pseudomonas aeruginosa [2]) was 256 µg/mL and the “fractional inhibitory concentration index (FICI)” value (Pseudomonas aeruginosa [3]) was <0.125. For the same compound, the MIC (Pseudomonas aeruginosa [4]) was ≥ 256 µg/mL, the “fractional inhibitory concentration index (FICI)” value (Enterobacter cloacae [5]) was 0.5 and the MIC (Pseudomonas aeruginosa [6]) was 256 µg/mL. For the same compound, the MIC (Enterobacter cloacae [7]) was 16 µg/mL, the MIC (Pseudomonas aeruginosa [8]) was 1 µg/mL and the “fractional inhibitory concentration index (FICI)” value (Pseudomonas aeruginosa [9]) was 0.078. For the same compound, the Activity (Pseudomonas aeruginosa [10]) was “Dose-dependent effect”, the “fractional inhibitory concentration index (FICI)” value (Escherichia coli [11]) was 0.5 and the MIC (Enterobacter cloacae [12]) was 16 µg/mL. For the same compound, the MIC (Pseudomonas aeruginosa [13]) was 2 µg/mL, the MIC [14] was 4 µg/mL and the MIC (Enterobacter cloacae [15]) was 1 µg/mL. For the same compound, the MIC (Pseudomonas aeruginosa [16]) was > 128 µg/mL, the “fractional inhibitory concentration index (FICI)” value (Pseudomonas aeruginosa [17]) was 0.078 and the “fractional inhibitory concentration index (FICI)” value (Pseudomonas aeruginosa [18]) was <0.375. The “fractional inhibitory concentration index (FICI)” value (Pseudomonas aeruginosa [19]) was <0.133, the “fractional inhibitory concentration index (FICI)” value (Pseudomonas aeruginosa [20]) was 0.15 and the “fractional inhibitory concentration index (FICI)” value (Klebsiella pneumoniae [21]) was <0.516. The Activity (Pseudomonas aeruginosa [22]) was “Dose-dependent effect”, the “fractional inhibitory concentration index (FICI)” value (Pseudomonas aeruginosa [23]) was <0.281 and the MIC (Klebsiella pneumoniae [24]) was > 32 µg/mL. The MIC (Pseudomonas aeruginosa [25]) was 1 µg/mL, the MIC (Klebsiella pneumoniae [26]) was 64 µg/mL and the Activity (Pseudomonas aeruginosa [27]) was “Dose-dependent effect”. The MIC [28] was > 32 µg/mL, the “fractional inhibitory concentration index (FICI)” value (Pseudomonas aeruginosa [29]) was 0.125 and the Activity (Pseudomonas aeruginosa [30]) was “Dose-dependent effect”. For the same compound, the MIC (Pseudomonas aeruginosa [31]) was 0.5 µg/mL, the MIC (Pseudomonas aeruginosa [32]) was 256 µg/mL and the MIC (Acinetobacter baumannii) was 64 µg/mL.

In the case of `NC[C@H]1O[C@H](O[C@H]2[C@H](O)[C@@H](O[C@H]3O[C@H](CO)[C@@H](O)[C@H](N)[C@H]3O)[C@H](N)C[C@@H]2N)[C@H](N)C[C@@H]1O` [TOBRAMYCIN], the MIC (Pseudomonas aeruginosa [2]) is reported as 0.5 µg/mL (≈ 1.07 µM), the “fractional inhibitory concentration index (FICI)” value (Pseudomonas aeruginosa [3]) is reported as “<=1” and the MIC (Pseudomonas aeruginosa [4]) is reported as 128 µg/mL (≈ 274 µM). For the same compound, the MIC [14] was 2 µg/mL (≈ 4.28 µM), the MIC (Pseudomonas aeruginosa [16]) was 32 µg/mL (≈ 68.4 µM) and the “fractional inhibitory concentration index (FICI)” value (Pseudomonas aeruginosa [18]) was 1.25. The “fractional inhibitory concentration index (FICI)” value (Pseudomonas aeruginosa [19]) was 1.5, the MIC (Klebsiella pneumoniae [24]) was ≤ 0.25 µg/mL and the FIC (Pseudomonas aeruginosa [33]) was “<=0.5”. The FIC (Pseudomonas aeruginosa [34]) was 0.5, the MIC [28] was > 512 µg/mL and the “fractional inhibitory concentration index (FICI)” value (Pseudomonas aeruginosa [29]) was 1.5. The MIC (Pseudomonas aeruginosa [32]) was 128 µg/mL (≈ 274 µM).
